# Patent publication US10975099B2, “Thiophene compounds for long-acting injectable compositions and related methods” (Alkermes Pharma Ireland Limited, priority 2018, dated 2021)
# Several values for one entry are separate records, joined by “and”; a condition that tells them apart may be missing. Identical values can stand only once.
# Assays:
# [1] = Whole blood stability assay; assay type: in vitro ADME; settings: pooled fresh human whole blood, 37 degrees C., prodrug 50 nM; read-out: t1/2 at 37 degrees C. in human whole blood
# Description: Naltrexone prodrug stability was assessed using freshly collected whole blood (within 24-hr collection) from pooled human (n=3) donors. The incubation mixtures were prepared by spiking the prodrugs into pre-warmed (37 degrees C.) fresh whole blood to a final concentration of 50 nM. After gentle mixing, aliquots of incubation mixtures were immediately transferred into four different 96-deep well plates. One plate was used for each time point. The plates were incubated at 37 degrees C. at a shaking speed of 100 rpm. At time points 15, 30, 60 and 120 minutes, the reaction was quenched by addition of a mixture of water and acetonitrile containing the internal standard (naltrexone-D3). Time point 0 minutes was prepared separately by spiking the prodrugs into a quenched whole blood to obtain a final concentration of 50 nM. All samples were vortexed at a low speed for 15 min and centrifuged at 3900 rpm for 15 min. Supernatants were transferred into 96-well plates for LC-MS/MS analysis to monitor the depletion of the prodrugs and the formation of naltrexone.
# The amount of remaining prodrug and released naltrexone for each sample was quantitated against the calibration curves prepared with the whole blood. The human whole blood was purchased from BioreclamationIVT (Westbury, N.Y., USA). Naltrexone-D3 was purchased from Cerilliant® (Round Rock, Tex., USA). […] Where multiple runs have been completed, average values are reported.
# [2] = Pharmacokinetic evaluation of the release of naltrexone from Compound 4 in rats following a single intramuscular injection; assay type: in vivo, Sprague-Dawley rats; settings: for plasma concentrations of parent Compound 4 and the resultant intermediate, in words: over 84 days after single IM dose of Compound 4, limit of quantitation 0.5 ng/mL
# Description: Five male Sprague-Dawley rats were allowed to acclimate to the test facility for at least 3 days prior to study start. For dose administration of Compound 4, the rats were lightly anesthetized with isofluorane, the hind leg shaved and dosed intramuscularly with the formulation using a 20 G needle. […] Serial whole blood samples were collected via sublingual route (˜150 μL) at 1, 7, and 24 hours post dose, and at 2, 4, 7, 10, 14, 21, 24, 28, 35, 42, 49, 56, 63, 70, 77, and 84 days post dose.
# Blood samples were placed into K2EDTA blood collection tubes. After collection, blood samples were maintained chilled (on wet ice) and centrifuged (11,500 rpm for 2 minutes at 5 degrees C.) within 30 minutes to obtain plasma. Plasma was transferred into a single vial, 1.5 mL screw cap micro-centrifuge tube with inserts and stored at −80 degrees C. until analysis.
# The formulation dosed was a crystalline suspension of Compound 4 (48.3 milligrams of Compound 4 dosed per animal), wherein the crystalline test article was characterized with a particle size distribution of Dv10=4.0 μm, Dv50=6.4 μm, and Dv90=9.6 μm (as measured via laser diffraction). The formulation was prepared the day before dosing. Details of the formulation dosed are described in Table D below.
# Results of the above intramuscular rat study of Compound 4 are shown in Tables E and F. In particular, Table E reports the average blood plasma levels of naltrexone in rat (n=5) over 84 days following intramuscular administration.
smiles,measurement,setting,value
"O=C(CCc1ccc(CCC(=O)Oc2ccc3c4c2O[C@H]2C(=O)CC[C@@]5(O)[C@@H](C3)N(CC3CC3)CC[C@]425)s1)Oc1ccc2c3c1O[C@H]1C(=O)CC[C@@]4(O)[C@@H](C2)N(CC2CC2)CC[C@]314 [Compound 1, bis((4R,4aS,7aR,12bS)-3-(cyclopropylmethyl)-4a-hydroxy-7-oxo-2,3,4,4a,5,6,7,7a-octahydro-1H-4,12-methanobenzofuro[3,2-e]isoquinolin-9-yl) 3,3′-(thiophene-2,5-diyl)dipropionate]",half-life at 50 nM,[1],7.2 min
"O=C(Cc1cscc1CC(=O)Oc1ccc2c3c1O[C@H]1C(=O)CC[C@@]4(O)[C@@H](C2)N(CC2CC2)CC[C@]314)Oc1ccc2c3c1O[C@H]1C(=O)CC[C@@]4(O)[C@@H](C2)N(CC2CC2)CC[C@]314 [Compound 2, bis((4R,4aS,7aR,12bS)-3-(cyclopropylmethyl)-4a-hydroxy-7-oxo-2,3,4,4a,5,6,7,7a-octahydro-1H-4,12-methanobenzofuro[3,2-e]isoquinolin-9-yl) 2,2′-(thiophene-3,4-diyl)diacetate]",half-life at 50 nM,[1],< 5 min
"O=C(Cc1sc(CC(=O)Oc2ccc3c4c2O[C@H]2C(=O)CC[C@@]5(O)[C@@H](C3)N(CC3CC3)CC[C@]425)c2ccccc12)Oc1ccc2c3c1O[C@H]1C(=O)CC[C@@]4(O)[C@@H](C2)N(CC2CC2)CC[C@]314 [Compound 3, bis((4R,4aS,7aR,12bS)-3-(cyclopropylmethyl)-4a-hydroxy-7-oxo-2,3,4,4a,5,6,7,7a-octahydro-1H-4,12-methanobenzofuro[3,2-e]isoquinolin-9-yl) 2,2′-(benzo[c]thiophene-1,3-diyl)diacetate]",half-life at 50 nM,[1],41.2 min
"O=C(Cc1ccc(CC(=O)Oc2ccc3c4c2O[C@H]2C(=O)CC[C@@]5(O)[C@@H](C3)N(CC3CC3)CC[C@]425)s1)Oc1ccc2c3c1O[C@H]1C(=O)CC[C@@]4(O)[C@@H](C2)N(CC2CC2)CC[C@]314 [Compound 4, bis((4R,4aS,7aR,12bS)-3-(cyclopropylmethyl)-4a-hydroxy-7-oxo-2,3,4,4a,5,6,7,7a-octahydro-1H-4,12-methanobenzofuro[3,2-e]isoquinolin-9-yl) 2,2′-(thiophene-2,5-diyl)diacetate]",half-life at 50 nM,[1],4.19 min
same,concentration at 1 day,"[2]; male, Sprague-Dawley, rat, plasma, intramuscular, 48.3 mg per animal, rat plasma, individual animals Rat 1-5, day 1 after single IM dose of Compound 4, read-out: Compound 4 conc.",< 0.5 ng/mL
same,concentration at 49 day,"[2]; male, Sprague-Dawley, rat, plasma, intramuscular, 48.3 mg per animal, rat plasma, individual animals Rat 1-5, day 49 after single IM dose of Compound 4, read-out: Compound 4 conc.",< 0.5 ng/mL
same,concentration at 56 day,"[2]; male, Sprague-Dawley, rat, plasma, intramuscular, 48.3 mg per animal, rat plasma, individual animals Rat 1-5, day 56 after single IM dose of Compound 4, read-out: Compound 4 conc.",< 0.5 ng/mL
same,concentration at 63 day,"[2]; male, Sprague-Dawley, rat, plasma, intramuscular, 48.3 mg per animal, rat plasma, individual animals Rat 1-5, day 63 after single IM dose of Compound 4, read-out: Compound 4 conc.",< 0.5 ng/mL
same,concentration at 70 day,"[2]; male, Sprague-Dawley, rat, plasma, intramuscular, 48.3 mg per animal, rat plasma, individual animals Rat 1-5, day 70 after single IM dose of Compound 4, read-out: Compound 4 conc.",< 0.5 ng/mL
same,concentration at 77 day,"[2]; male, Sprague-Dawley, rat, plasma, intramuscular, 48.3 mg per animal, rat plasma, individual animals Rat 1-5, day 77 after single IM dose of Compound 4, read-out: Compound 4 conc.",< 0.5 ng/mL
same,concentration at 84 day,"[2]; male, Sprague-Dawley, rat, plasma, intramuscular, 48.3 mg per animal, rat plasma, individual animals Rat 1-5, day 84 after single IM dose of Compound 4, read-out: Compound 4 conc.",< 0.5 ng/mL
same,concentration at 2 day,"[2]; male, Sprague-Dawley, rat, plasma, intramuscular, 48.3 mg/animal, rat plasma, individual animals Rat 1-5, day 2 after single IM dose of Compound 4, read-out: Compound 4 conc.",< 0.5 ng/mL
same,concentration at 4 day,"[2]; male, Sprague-Dawley, rat, plasma, intramuscular, 48.3 mg/animal, rat plasma, individual animals Rat 1-5, day 4 after single IM dose of Compound 4, read-out: Compound 4 conc.",< 0.5 ng/mL
same,concentration at 7 day,"[2]; male, Sprague-Dawley, rat, plasma, intramuscular, 48.3 mg/animal, rat plasma, individual animals Rat 1-5, day 7 after single IM dose of Compound 4, read-out: Compound 4 conc.",< 0.5 ng/mL
same,concentration at 10 day,"[2]; male, Sprague-Dawley, rat, plasma, intramuscular, 48.3 mg/animal, rat plasma, individual animals Rat 1-5, day 10 after single IM dose of Compound 4, read-out: Compound 4 conc.",< 0.5 ng/mL
same,concentration at 14 day,"[2]; male, Sprague-Dawley, rat, plasma, intramuscular, 48.3 mg/animal, rat plasma, individual animals Rat 1-5, day 14 after single IM dose of Compound 4, read-out: Compound 4 conc.",< 0.5 ng/mL
same,concentration at 21 day,"[2]; male, Sprague-Dawley, rat, plasma, intramuscular, 48.3 mg/animal, rat plasma, individual animals Rat 1-5, day 21 after single IM dose of Compound 4, read-out: Compound 4 conc.",< 0.5 ng/mL
same,concentration at 24 day,"[2]; male, Sprague-Dawley, rat, plasma, intramuscular, 48.3 mg/animal, rat plasma, individual animals Rat 1-5, day 24 after single IM dose of Compound 4, read-out: Compound 4 conc.",< 0.5 ng/mL
same,concentration at 28 day,"[2]; male, Sprague-Dawley, rat, plasma, intramuscular, 48.3 mg/animal, rat plasma, individual animals Rat 1-5, day 28 after single IM dose of Compound 4, read-out: Compound 4 conc.",< 0.5 ng/mL
same,concentration at 35 day,"[2]; male, Sprague-Dawley, rat, plasma, intramuscular, 48.3 mg/animal, rat plasma, individual animals Rat 1-5, day 35 after single IM dose of Compound 4, read-out: Compound 4 conc.",< 0.5 ng/mL
same,concentration at 42 day,"[2]; male, Sprague-Dawley, rat, plasma, intramuscular, 48.3 mg/animal, rat plasma, individual animals Rat 1-5, day 42 after single IM dose of Compound 4, read-out: Compound 4 conc.",< 0.5 ng/mL
same,Naltrexone conc.,"[2]; rat plasma, average, day 84 after single IM dose of Compound 4 crystalline suspension (48.3 mg/animal)",BLQ* (BLQ (Below Limit of Quantitation) means <0.5 ng/mL)
same,Compound 4 conc.,"[2]; rat plasma, individual animals Rat 1-5, day 0.04 (1 hr) after single IM dose of Compound 4",<0.5 ng/mL (4×) and 2.11 ng/mL
same,Compound 4 conc.,"[2]; rat plasma, individual animals Rat 1-5, day 0.3 (7 hr) after single IM dose of Compound 4",1.22 ng/mL and <0.5 ng/mL (3×) and 1.05 ng/mL
same,Compound 4 conc.,"[2]; rat plasma, individual animals Rat 1-5, day 1 after single IM dose of Compound 4",<0.5 ng/mL (3×) and 0.501 ng/mL
same,Compound 4 conc.,"[2]; rat plasma, individual animals Rat 1-5, day 2 after single IM dose of Compound 4",<0.5 ng/mL
same,Compound 4 conc.,"[2]; rat plasma, individual animals Rat 1-5, day 4 after single IM dose of Compound 4",<0.5 ng/mL
same,Compound 4 conc.,"[2]; rat plasma, individual animals Rat 1-5, day 7 after single IM dose of Compound 4",<0.5 ng/mL
same,Compound 4 conc.,"[2]; rat plasma, individual animals Rat 1-5, day 10 after single IM dose of Compound 4",<0.5 ng/mL
same,Compound 4 conc.,"[2]; rat plasma, individual animals Rat 1-5, day 14 after single IM dose of Compound 4",<0.5 ng/mL
same,Compound 4 conc.,"[2]; rat plasma, individual animals Rat 1-5, day 21 after single IM dose of Compound 4",<0.5 ng/mL
same,Compound 4 conc.,"[2]; rat plasma, individual animals Rat 1-5, day 24 after single IM dose of Compound 4",<0.5 ng/mL
same,Compound 4 conc.,"[2]; rat plasma, individual animals Rat 1-5, day 28 after single IM dose of Compound 4",<0.5 ng/mL
same,Compound 4 conc.,"[2]; rat plasma, individual animals Rat 1-5, day 35 after single IM dose of Compound 4",<0.5 ng/mL
same,Compound 4 conc.,"[2]; rat plasma, individual animals Rat 1-5, day 42 after single IM dose of Compound 4",<0.5 ng/mL
same,Compound 4 conc.,"[2]; rat plasma, individual animals Rat 1-5, day 49 after single IM dose of Compound 4",<0.5 ng/mL
same,Compound 4 conc.,"[2]; rat plasma, individual animals Rat 1-5, day 56 after single IM dose of Compound 4",<0.5 ng/mL
same,Compound 4 conc.,"[2]; rat plasma, individual animals Rat 1-5, day 63 after single IM dose of Compound 4",<0.5 ng/mL
same,Compound 4 conc.,"[2]; rat plasma, individual animals Rat 1-5, day 70 after single IM dose of Compound 4",<0.5 ng/mL
same,Compound 4 conc.,"[2]; rat plasma, individual animals Rat 1-5, day 77 after single IM dose of Compound 4",<0.5 ng/mL
same,Compound 4 conc.,"[2]; rat plasma, individual animals Rat 1-5, day 84 after single IM dose of Compound 4",<0.5 ng/mL
same,"plasma concentrations of parent Compound 4 and the resultant intermediate, in words",[2]; rat,generally low to not measurable
"O=C(O)Cc1ccc(CC(=O)Oc2ccc3c4c2O[C@H]2C(=O)CC[C@@]5(O)[C@@H](C3)N(CC3CC3)CC[C@]425)s1 [Compound 4i, 2-(5-(2-(((4R,4aS,7aR,12bS)-3-(cyclopropylmethyl)-4a-hydroxy-7-oxo-2,3,4,4a,5,6,7,7a-octahydro-1H-4,12-methanobenzofuro[3,2-e]isoquinolin-9-yl)oxy)-2-oxoethyl)thiophen-2-yl)acetic acid]","plasma concentrations of parent Compound 4 and the resultant intermediate, in words",[2]; rat,generally low to not measurable
"O=C(Oc1ccc2c3c1O[C@H]1C(=O)CC[C@@]4(O)[C@@H](C2)N(CC2CC2)CC[C@]314)c1ccc(C(=O)Oc2ccc3c4c2O[C@H]2C(=O)CC[C@@]5(O)[C@@H](C3)N(CC3CC3)CC[C@]425)cc1 [Reference Compound A, NTX-3-terephthaloyl-NTX, reference compound]",half-life at 50 nM,[1],54.7 min
